Assay results published in patent US11986532B2 (Arvinas Operations, Inc., priority 2021, dated 2024).

Molecular target: T1, BCL6 (Homo sapiens, UniProt P41182)
T1 construct: endogenous in cells; host or cells: T47D breast cancer epithelial cells
Assay: Immunofluorescence protocol for high content imaging of BCL6 (degradation) in T47D cells, 3 days compound treatment
Type: cell-based
Details: for Dmax: T47D, read-out: Mean Dmax (%)** category; for DC50: read-out: Mean DC50 (nM)* category
Procedure, shortened: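 High content immunofluorescence imaging (10×, 4 fields/well) of BCL6 using rabbit primary antibody, Alexa-488 secondary, cell mask and Hoechst nuclear stain after PFA fixation. Before staining, T47D cells (7K/well) were exposed for 3 days at 37° C to 3-fold serial dilutions of compound, top final concentration 0.1 or 1 μM.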

Row | Structure (SMILES) | Dmax | DC50
1 | CNC(=O)COc1cc2cc(Nc3nc(N4CCC(CN5CCC6(CC5)CC5(CN(c7cccc8c7C(=O)N(C7CCC(=O)NC7=O)C8=O)C5)C6)CC4)ncc3Cl)ccc2n(C(C)C)c1=O (stereo not shown) [Compound 374, 2-{[6-({5-chloro-2-[4-({2-[2-(2,6-dioxopiperidin-3-yl)-1,3-dioxo-2,3-dihydro-1H-isoindol-4-yl]-2,9-diazadispiro[3.1.5^6.1^4]dodecan-9-yl}methyl)piperidin-1-yl]pyrimidin-4-yl}amino)-2-oxo-1-(propan-2-yl)-1,2-dihydroquinolin-3-yl]oxy}-N-methylacetamide] | ≥ 70% | < 10 nM
2 | CNC(=O)COc1cc2cc(Nc3nc(N4CCC(O[C@H]5C[C@H](N6CC7(CCN7c7ccc8c(c7)C(=O)N(C7CCC(=O)NC7=O)C8)C6)C5)CC4)ncc3Cl)ccc2n(C(C)C)c1=O (stereo partly shown) [Compound 330, 2-({6-[(5-chloro-2-{4-[(1r,3r)-3-{1-[2-(2,6-dioxopiperidin-3-yl)-3-oxo-2,3-dihydro-1H-isoindol-5-yl]-1,6-diazaspiro [3.3]heptan-6-yl}cyclobutoxy]piperidin-1-yl}pyrimidin-4-yl)amino]-2-oxo-1-(propan-2-yl)-1,2-dihydroquinolin-3-yl}oxy)-N-methylacetamide] | < 50% | 10 to 50 nM
